We go through four compounds from patent publication US8859781B2, “No-releasing nonoate(nitrogen-bound)sulfonamide-linked-coxib anti-cancer agents” (Euclises Pharmaceuticals, Inc., priority 2012, dated 2014).

For this assay, the system named is PGE2 levels in exudate (carrageenan-challenged air pouch). Briefly: Air pouch assay of acute inflammation measuring exudate volume and PGE2 levels in exudate in rats. The class given is in vivo, Sprague-Dawley rats. The note with it: rat air pouch; for PGE2 (pg/mL), mean in exudate / Volume (mL), mean collected exudate volume: 0.01 mmol/kg oral 2 h before 1% carrageenan, exudate 4 h after carrageenan, group mean, 5 rats/group; for PGE2 (pg/mL), mean in exudate: ELISA; for reduction in collected exudate volume / reduction in exudate PGE2 release / effect on the carrageenan-induced increase in PGE2 release / effect on the carrageenan-induced increase in exudate volume: 0.01 mmol/kg oral pretreatment; for reduction in collected exudate volume / reduction in exudate PGE2 release: vs vehicle; for effect on the carrageenan-induced increase in PGE2 release / effect on the carrageenan-induced increase in exudate volume: result in words. The procedure: Compound Testing in the Air Pouch Assay of Acute Inflammation Measuring PGE2 Levels in Exudate in Rats
Animals: Sprague-Dawley rats (Charles River Laboratories., R #3234, PO #738990, male, 160-180 g) were received, individually examined, and housed in cages of five rats each. The rats were ear notched for identification purposes.
Compounds and Dosing Solutions: The vehicle was prepared by dissolving 40 g (2-hydroxypropyl)-β-cyclodextrin (HP-β-CD, Sigma, Cat. 332593, lot MKBJ5858V) in 160 mL sterile saline for injection, USP (Hospira, lot 26-801-FW) making a 25% solution which was filter sterilized (0.2 μm, Nalgene, Cat. 151-4020, lot 1095610). A 1% carrageenan solution was prepared by dissolving […] (Fluka, Cat. 22049, lot 1318338) in hot 60 mL sterile saline for injection, USP. This solution was stored at 4-8° C. Test compounds were dissolved in DMSO (Fisher Scientific, Cat. D128-500, lot 874999) to make 75 mM stocks. 0.25 mL of compound DMSO stocks were mixed with 12.5 mL of HP-13-CD solution at 50° C. (maximum DMSO concentration was 2% of the final volume of vehicle,). Final concentration of all test compounds was 1.5 mM and compounds were dosed within 2 hours of preparation at 0.01 mmol/kg (12 […] of test compound per rat).
Day 0—Air Pouch Initiation: The rats were anesthetized in a biological cabinet, the nape of the neck was cleansed with 70% isopropanol (Butler Schein Animal Health, Cat. 002498, lot 29EMS07104547) followed by 1% povidone-iodine solution (Ricca Chemical Co., Cat. 3955-16, lot 2205469). Twenty mL of sterile (0.22 μm, Millipore, Cat. SLGP033RS, lot R2KA55925, exp August 2015) air was injected subcutaneously (SC) using a 23G×1½ inch needle fixed to a 20 mL syringe. The rats were returned to routine housing. No adverse reactions were observed.
Day 3—Air Pouch Maintenance: The rats were anesthetized in a biological cabinet, the nape of the neck was cleansed with 70% isopropanol followed by 1% povidone-iodine solution. Ten mL of sterile air was injected SC using a 23G×1½ inch needle fixed to a 20 mL syringe. The rats were returned to routine housing in clean cages. No adverse reactions were observed.
Day 6—Compound Administration and Carrageenan Insult: At commencement of the study, each rat was weighed and sorted into treatment groups of 5 rats/group based upon average weight. Each rat was dosed orally via gavage at 6.809 mL/kg (1.6 mL/235 g) with their respective test material/vehicle. Two hours after test material/vehicle administration, the rats were injected with 1.0 mL of the room temperature 1% carrageenan saline solution into the air pouch. Four hours after carrageenan injection, the rats were anesthetized and 5 mL of the exudate buffer was injected into the air pouch. The pouch was gently massaged, the exudate immediately removed, and exudate volume recorded. The exudate was collected in a serum separator tube on an ice bath. The exudates were centrifuged (refrigerated) and an aliquot of the supernatant was stored in a labeled Eppendorf tube at −80° C.
Termination of Study: Animals were euthanized via CO2 asphyxiation at the completion of the in-life portion of this study and carcasses were disposed of according to standard protocols.
Data Analysis: The exudate samples were thawed to room temperature and assayed by ELISA for PGE2 (R&D Systems, Cat. KGE004B, lot 307711). Statistical significance of treatments on mean exudate volumes are determined by comparison of means for treatment groups with vehicle group. Mean cytokine concentrations and standard deviations are determined for each group. Statistical significance of treatments on cytokine concentrations are determined for each compound group compared to vehicle group. Statistical significance (p-value) was calculated vs control groups by Student's t-Test.
For orientation: ELISA stands for enzyme-linked immunosorbent assay.

Regarding `Cc1ccc(-c2cc(C(F)(F)F)nn2-c2ccc(S(N)(=O)=O)cc2)cc1` [Celecoxib, 4-(5-(p-Tolyl)-3-(trifluoromethyl)-1H-pyrazol-1-yl)benzenesulfonamide, reference compound], the “PGE2 (pg/mL), mean in exudate” value came out at 907.1 pg/mL; the “Volume (mL), mean collected exudate volume” value (“Volume (mL)” below) is given as 4.6 mL; the “reduction in collected exudate volume” value is given as 19%; the “reduction in exudate PGE2 release” value is listed as 80%.

`CN(CCO)/[N+]([O-])=N/OCOC(=O)C(C)(C)C` [Compound N402, (Z)-3-(2-Hydroxyethyl)-3-methyl-1-((pivaloyloxy)methoxy)triaz-1-ene 2-oxide]: the “PGE2 (pg/mL), mean in exudate” value is recorded as 3782.4 pg/mL; the “Volume (mL)” value was 5.4 mL; the “effect on the carrageenan-induced increase in PGE2 release” value is “did not show any effect”; the “effect on the carrageenan-induced increase in exudate volume” value was “did not show any effect”.

Regarding `Cc1ccc(-c2cc(C(F)(F)F)nn2-c2ccc(S(=O)(=O)NC(=O)CN(C)/[N+]([O-])=N/OCOC(=O)C(C)(C)C)cc2)cc1` [Compound 602, (Z)-3-Methyl-3-(2-oxo-2-(4-(5-(p-tolyl)-3-(trifluoromethyl)-1H-pyrazol-1-yl)phenylsulfonamido)ethyl)-1-((pivaloyloxy)methoxy)triaz-1-ene 2-oxide], the “PGE2 (pg/mL), mean in exudate” value worked out at 1915.2 pg/mL; the “Volume (mL)” value is reported as 4.5 mL; the “reduction in collected exudate volume” value came out at 20%; the “reduction in exudate PGE2 release” value stood at 56%.

On to `Cc1ccc(-c2cc(C(F)(F)F)nn2-c2ccc(S(=O)(=O)NC(=O)OCCN(C)/[N+]([O-])=N/OCOC(=O)C(C)(C)C)cc2)cc1` [Compound 202, (Z)-5,12,12-Trimethyl-1,11-dioxo-1-(4-(5-(p-tolyl)-3-(trifluoromethyl)-1H-pyrazol-1-yl)phenylsulfonamido)-2,8,10-trioxa-5,6,7-triazatridec-6-ene 6-oxide], for which the “PGE2 (pg/mL), mean in exudate” value is 4959.1 pg/mL; the “Volume (mL)” value came out at 5.6 mL; the “effect on the carrageenan-induced increase in PGE2 release” value is given as “did not show any effect”; the “effect on the carrageenan-induced increase in exudate volume” value was “did not show any effect”.
